The record followed here is PMC5640644, “HDX reveals the conformational dynamics of DNA sequence specific VDR co-activator interactions” (Nature Communications, 2017).

The test system of this assay is BGLAP. Nature of the assay: BGLAP gene activation assay (BGLAP mRNA, QuantiGene 2.0) in MG-63 cells. In kind it is cell-based, human. As to conditions: MG-63 cells; for pEC50: 24 h, average of replicate runs, read-out: EC50, BGLAP activation; for Max. Stim., BGLAP activation: fold change over DMSO normalized to 1,25D3 = 100%. Here is the method: Human osteosarcoma cells MG-63, (CRL-1427, American Type Culture Collection (ATCC), Manassas, VA), were maintained in EMEM (ATCC 30–2003) + 10% FBS in 5% CO2. For bone gamma-carboxyglutamate protein (BGLAP) expression analysis MG-63 cells, suspended in EMEM (ATCC 30–2003) + 5% charcoal dextran treated FBS, were seeded onto 96-well tissue culture treated plates at 25,000 cells per well. After an overnight incubation the medium was removed and serial dilutions of VDRMs in concentrations ranging from 10 μM to 2 nM in EMEM (ATCC 30–2003) + 5% charcoal dextran treated FBS were added. Following a 24 h incubation the medium was removed and the plates were sealed and stored at −80 °C for later processing. QuantiGene 2.0 Assay Kit (Affymetrix QS0009) was used to quantitate BGLAP and the Housekeeping gene […] mRNA levels. Following the kit instructions, lysis buffer was added to the frozen cells and incubated briefly at 55 °C. A volume of 20 μl of BGLAP probeset (Affymetrix SA-10875-01) or 18 S (Affymetrix SA-10026) in blocking buffer was added to the provided capture plates before adding 80 μl of the cell lysate. The plates were sealed and incubated at 55 °C overnight. Following an overnight incubation the capture plates were washed and the probes amplified following kit instructions. The resulting luminescence signal was detected on an Envision (Perkin Elmer). BGLAP signal was normalized using the 18S signal and the resulting data was fit to a 4-parameter logistics to determine EC50.

pEC50: −log10 of the molar value. Like-named read-outs stand apart in the source and are kept apart here.

`CCC(CC)(c1ccc(OCC(O)C(C)(C)C)c(C)c1)c1ccc(C(=O)N(C)CC(=O)O)c(C)c1` (stereo not drawn) [Cmpd1, [(4-{1-ethyl-1-[4-(2-hydroxy-3,3-dimethyl-butoxy)-3-methyl-phenyl]-propyl}-2-methyl-benzoyl)-methyl-amino]-acetic acid]: the “Max. Stim., BGLAP activation” value was found to be 94.2%. For the same molecule, the negative logarithm of the EC50 (pEC50) (Homo sapiens) is 8.84.

As for `CCC(CC)(c1ccc(OCC(O)C(C)(C)C)c(C)c1)c1cc(C)c(C(=O)Nc2nnn[nH]2)s1` (stereo not drawn) [Cmpd3, 3'-[4-(2-hydroxy-3,3-dimethylbutoxy)-3-methylphenyl]-3'-[5-(tetrazol-5-yl-aminocarbonyl)-4-methylthiophen-2-yl]pentane], the pEC50 was 6.16 and the “Max. Stim., BGLAP activation” value is reported as 75.9%.

Take `CCc1cc(C(CC)(CC)c2ccc(OCC(O)C(C)(C)C)c(C)c2)sc1C(=O)N[C@@H](C)C(=O)O` (single isomer, unassigned) [Cmpd2, L-2-[(5-{1-Ethyl-1-[4-(2-hydroxy-3,3-dimethyl-butoxy)-3-methyl-phenyl]-propyl}-3-ethyl-thiophene-2-carbonyl)-amino]-propionic acid]: the “Max. Stim., BGLAP activation” value is on record as 73%. Further, the pEC50 (Homo sapiens) was 7.46.

The term pEC50 denotes −log10 of the EC50, conventionally taken in molar units.
